Results reported in patent US20130005568A1, “SAFENED HERBICIDAL MIXTURES” (E.I. DU PONT DE NEMOURS AND COMPANY, priority 2011, published 2013).

Assays:
[1] = tested on: sorghum hybrid WL09-6002; set-up: species or system Sorghum bicolor (L.) Moench; details: in vivo
Description: (§1) For all of the following biological tests, plant response ratings were based on a 0-100 scale where zero is growth equivalent to that of untreated plants (no plant response) and 100 represents no additional growth occurring after herbicide treatment.
(§2) Cultivated sorghum varieties are generally very sensitive to acetohydroxy acid synthase-inhibiting herbicides such as rimsulfuron. To impart tolerance in sorghum hybrids WL09-6001 and WL09-6002 used in this test, plant breeders introduced a gene for acetohydroxy acid synthase (also known as acetolactate synthase) resistant to inhibition by certain acetohydroxy acid synthase-inhibiting herbicides, by breeding starting from a wild Sorghum genotype containing the resistance gene (see U.S. Patent Publication US 2008/0216187 A1).
(§3) Herbicide mixtures were formulated, dissolved/dispersed in water containing 1% crop oil concentrate, and sprayed postemergence to sorghum (Sorghum bicolor (L.) Moench) in the third collar growth stage (extended leaf height is 10-20 cm). Treated plants were grown under greenhouse conditions for two weeks before visual evaluations of plant responses were recorded.

[2] = tested on: sorghum hybrid WL09-6001; set-up: species or system Sorghum bicolor (L.) Moench; details: in vivo
Description: as §1, §2, §3

[3] = tested on: Zoysia grass; test: Test G: turf grass and weed postemergence plant response rating; assay type: in vivo, Zoysia japonica Steud.; details: Compound 1 alone 125 g ai/ha; Test G plants
Description: as §1
(§4) Plants of the turf grass species: zoysia (Zoysia japonica Steud.), bermudagrass (Cynodon dactylon (L.) Pers.), tall fescue (Festuca arundinacea Shreib.), creeping bentgrass (Agrostis stoonoifera L.), perennial ryegrass (Lolium perenne L.) and hard fescue (Festuca species) were grown under greenhouse conditions for four months. Plants were clipped as needed to plant heights of 5-10 cm. Weeds typically found in turf: annual bluegrass (Poa annua L.), common chickweed (Stellaria media (L.) Vill.), large crabgrass (Digitaria sanguinales (L.) Scop.), dandelion (Taraxacum officinale Weber in Wiggers), goosegrass (Eleusine indica (L.) Gaertn.), henbit (Lamium amplexicaule L.), venice mallow (Hibiscus trionium L.) and purple nutsedge (Cyperus rotundus L.) were also grown under greenhouse conditions so that plants were 5-20 cm tall when they were treated. Herbicide mixtures were formulated, dissolved/dispersed in water containing 0.25% non-ionic surfactant, and sprayed postemergence to these turf grasses and weeds. Treated plants were grown under greenhouse conditions for three weeks before visual evaluations of plant responses were recorded.

[4] = tested on: lambsquarters; test: Test E: postemergence plant response rating; assay type: in vivo, Chenopodium album L.; details: Compound 1 alone 125 g ai/ha; Test E plants
Description: as §1
(§5) Herbicide mixtures were formulated, dissolved/dispersed in water containing 0.25% non-ionic surfactant, sprayed postemergence to the crops: winter wheat (Triticum aestivum L.), spring wheat (Triticum aestivum L.), winter barley (Hordeum vulgare L.) and spring barley (Hordeum vulgare L.), and the weeds: blackgrass (Alopecurus myosuroides Huds.), lambsquarters (Chenopodium album L.) and pigweed (Amaranthus retroflexus L.). Treated plants were grown under greenhouse conditions for two weeks before visual evaluations of plant responses were recorded.

[5] = tested on: Creeping bentgrass; test: Test G: turf grass and weed postemergence plant response rating; assay type: in vivo, Agrostis stoonoifera L.; details: Compound 1 alone 125 g ai/ha; Test G plants
Description: as §1, §4

[6] = tested on: Dandelion; test: as above; assay type: in vivo, Taraxacum officinale Weber in Wiggers; details: Compound 1 alone 125 g ai/ha; Test G plants
Description: as §1, §4

[7] = tested on: Goosegrass; test: as above; assay type: in vivo, Eleusine indica (L.) Gaertn.; details: Compound 1 alone 125 g ai/ha; Test G plants
Description: as §1, §4

[8] = tested on: palisade grass; test: Test K: pasture grass postemergence plant response rating, field conditions; assay type: in vivo, Brachiaria brizantha (Hochst. ex A. Rich) Stapf; details: Compound 1 alone 140 g ai/ha; Test K plants
Description: as §1
(§6) Herbicide mixtures were formulated, dissolved/dispersed in water containing 0.25% non-ionic surfactant, and sprayed postemergence to the pasture grasses: Surinam grass (Brachiaria decumbens Stapf), palisade grass (Brachiaria brizantha (Hochst. ex A. Rich) Stapf) and Alexandergrass (Brachiaria plantaginea (Link) A. S. Hitchc.) approximately 10-30 cm tall (extended leaf height). This test was conducted under field conditions. Visual evaluations of plant responses were recorded four weeks after the plants were treated.

[9] = tested on: pigweed; test: Test E: postemergence plant response rating; assay type: in vivo, Amaranthus retroflexus L.; details: Compound 1 alone 125 g ai/ha; Test E plants
Description: as §1, §5

[10] = tested on: Venice mallow; test: Test G: turf grass and weed postemergence plant response rating; assay type: in vivo, Hibiscus trionium L.; details: Compound 1 alone 125 g ai/ha; Test G plants
Description: as §1, §4

[11] = tested on: Purple nutsedge; test: as above; assay type: in vivo, Cyperus rotundus L.; details: Compound 1 alone 125 g ai/ha; Test G plants
Description: as §1, §4

[12] = tested on: Perennial ryegrass; test: as above; assay type: in vivo, Lolium perenne L.; details: Compound 1 alone 125 g ai/ha; Test G plants
Description: as §1, §4

[13] = tested on: Surinam grass; test: Test K: pasture grass postemergence plant response rating, field conditions; assay type: in vivo, Brachiaria decumbens Stapf; details: Compound 1 alone 140 g ai/ha; Test K plants
Description: as §1, §6

[14] = tested on: Henbit; test: Test G: turf grass and weed postemergence plant response rating; assay type: in vivo, Lamium amplexicaule L.; details: Compound 1 alone 125 g ai/ha; Test G plants
Description: as §1, §4

[15] = tested on: Alexandergrass; test: Test K: pasture grass postemergence plant response rating, field conditions; assay type: in vivo, Brachiaria plantaginea (Link) A. S. Hitchc.; details: Compound 1 alone 140 g ai/ha; Test K plants
Description: as §1, §6

[16] = tested on: winter barley; test: Test F: preemergence plant response rating; assay type: in vivo, Hordeum vulgare L.; details: Compound 1 alone 125 g ai/ha; Test F plants
Description: as §1
(§7) Herbicide mixtures were formulated, dissolved/dispersed in water, and sprayed preemergence to the crops: winter wheat (Triticum aestivum L.) and winter barley (Hordeum vulgare L.), and the weed: blackgrass (Alopecurus myosuroides Huds). Treated plants were grown under greenhouse conditions for three weeks before visual evaluations of plant responses were recorded.

[17] = tested on: soybean; test: Test I: postemergence plant response rating; assay type: in vivo, Glycine max (L.) Merr.; details: Compound 1 alone 125 g ai/ha; Test I plants
Description: as §1
Herbicide mixtures were formulated, dissolved/dispersed in water containing 0.25% non-ionic surfactant, and sprayed postemergence to the crop: soybean (Glycine max (L.) Merr.) at the 2-leaf growth stage and to weeds: lambsquarters (Chenopodium album L.) and velvetleaf (Abutilon theophrasti Medik.). Weed species were 5-10 cm tall when treated. Treated plants were grown under greenhouse conditions for two weeks before visual evaluations of plant responses were recorded.

[18] = tested on: blackgrass; test: Test E: postemergence plant response rating; assay type: in vivo, Alopecurus myosuroides Huds.; details: Compound 1 alone 125 g ai/ha; Test E plants
Description: as §1, §5

[19] = tested on: Bermudagrass; test: Test G: turf grass and weed postemergence plant response rating; assay type: in vivo, Cynodon dactylon (L.) Pers.; details: Compound 1 alone 125 g ai/ha; Test G plants
Description: as §1
Plants of the turf grass species: zoysia (Zoysia japonica Steud.), bermudagrass (Cynodon dactylon (L.) Pers.), tall fescue (Festuca arundinacea Shreib.), creeping bentgrass (Agrostis stoonoifera L.), perennial ryegrass (Lolium perenne L.) and hard fescue (Festuca species) were grown under greenhouse conditions for four months. Plants were clipped as needed to plant heights of 5-10 cm. […] Herbicide mixtures were formulated, dissolved/dispersed in water containing 0.25% non-ionic surfactant, and sprayed postemergence to these turf grasses and weeds. Treated plants were grown under greenhouse conditions for three weeks before visual evaluations of plant responses were recorded.

[20] = tested on: blackgrass; test: Test F: preemergence plant response rating; assay type: in vivo, Alopecurus myosuroides Huds; details: Compound 1 alone 125 g ai/ha; Test F plants
Description: as §1, §7

Measured: injury, Compound 1 alone

Cc1ccccc1S(=O)(=O)NC(N)=O [Compound 1, N-(aminocarbonyl)-2-methylbenzenesulfonamide]
no injury: all assays above
